Measurements published in patent US20220017512A1 (SHANGHAI ENNOVABIO PHARMACEUTICALS CO., LTD., priority 2018, published 2022).

Key:
Assay type in all cases: biochemical
Recombinant human TRKC = target: T1, Recombinant human TRKC (Homo sapiens, UniProt Q16288); assay: In vitro activity test on TRKC kinase (HTRF KinEASE TK); conditions: 25.64 μM ATP, 40 min
T1 construct: purchased Carna Biosciences
Description: (§1) Biological Test Example 1 In Vitro Activity Test on TRKA, TRKB, TRKC Kinase
(§2) Recombinant human TRKA, TRKB, TRKC proteins were purchased from Carna Biosciences. HTRF KinEASE TK kit was purchased from Cisbio Bioassays. Synergy Neo 2 of Biotek was used to read the plate.
(§3) The tested compound was subjected to 3-fold serial dilution to reach a final concentration of 1 μM to 0.05 nM (10 concentrations), duplicates for each concentration; and the DMSO concentration in the detection reaction was 1%.
0.037 ng/μL TRKC protein kinase, 1 μM TK Substrate-biotin polypeptide substrate, 25.64 μM ATP, 1× enzymatic buffer, 5 mM MgCl2, and 1 mM DTT. The detection plate was White Proxiplate 384-Plus plate (PerkinElmer), and incubated at room temperature for 40 min, and the assay volume was 10 μL.
(§4) 10 μL of detection reagent was added to the plate (containing 0.125 μM SA-XL665 and 5 μL 1×TK-Antibody) and incubated overnight at room temperature, and Synergy Neo 2 was used to read the plate.
(§5) The 665/620 Ratio was converted according to the following formula into inhibition rate (%)=(1−Ratiotest/Ratiomax)×100%. Ratiomax was a positive control without tested compound, and Ratiotest was the value of each concentration of different compounds. IC50 (nM) data was obtained by 4 parameter curve fitting (see Table 1).

Recombinant human TRKA = target: T2, Recombinant human TRKA (Homo sapiens, UniProt P04629); assay: In vitro activity test on TRKA kinase (HTRF KinEASE TK); conditions: 14.68 μM ATP, 40 min
T2 construct: purchased Carna Biosciences
T2 sequence (P04629 33-796): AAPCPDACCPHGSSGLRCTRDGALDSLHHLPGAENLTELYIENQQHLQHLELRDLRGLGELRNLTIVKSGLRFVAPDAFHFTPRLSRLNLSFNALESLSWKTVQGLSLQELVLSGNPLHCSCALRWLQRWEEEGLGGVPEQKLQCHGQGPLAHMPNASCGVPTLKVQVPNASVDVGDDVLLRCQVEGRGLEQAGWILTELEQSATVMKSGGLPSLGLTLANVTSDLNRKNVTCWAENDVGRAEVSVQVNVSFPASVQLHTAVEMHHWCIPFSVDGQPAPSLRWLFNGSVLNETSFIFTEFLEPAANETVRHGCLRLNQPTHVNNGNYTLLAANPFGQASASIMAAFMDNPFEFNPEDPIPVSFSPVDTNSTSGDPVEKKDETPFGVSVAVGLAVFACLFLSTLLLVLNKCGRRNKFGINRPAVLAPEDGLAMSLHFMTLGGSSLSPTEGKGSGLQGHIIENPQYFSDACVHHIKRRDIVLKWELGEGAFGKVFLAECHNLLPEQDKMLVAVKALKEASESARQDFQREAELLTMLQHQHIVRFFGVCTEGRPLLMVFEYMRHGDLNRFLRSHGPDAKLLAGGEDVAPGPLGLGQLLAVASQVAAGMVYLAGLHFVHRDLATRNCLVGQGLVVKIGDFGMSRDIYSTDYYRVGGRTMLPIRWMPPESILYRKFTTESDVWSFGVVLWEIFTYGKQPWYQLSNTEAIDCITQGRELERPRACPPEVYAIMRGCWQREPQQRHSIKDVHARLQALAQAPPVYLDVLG
Description: as §1, §2, §3
0.2 ng/μL TRKA protein kinase, 1 μM TK Substrate-biotin polypeptide substrate, 14.68 μM ATP, 1× enzymatic buffer, 5 mM MgCl2, and 1 mM DTT. The detection plate was White Proxiplate384-Plus plate (PerkinElmer), and incubated at room temperature for 40 min, and the assay volume was 10 μL.
as §4, §5

[1] = target: T3, recombinant human TRKA (G667C) (Homo sapiens, UniProt P04629, G667C); assay: In vitro activity test on mutant TRKA (G667C) (HTRF KinEASE TK); conditions: 5.5 μM ATP, 30 min
T3 construct: purchased SignalChem
T3 sequence (P04629 33-796 G667C): as the sequence (P04629 33-796) above, with G635C counted along it
Description: (§6) Biological Test Example 2 In Vitro Activity Test on Mutant TRKA (G595R), TRKA (G667C) and TRKC (G623R)
(§7) The recombinant human TRKA (G595R), TRKA (G667C) and TRKC (G623R) proteins were purchased from SignalChem. HTRF kinEASE TK kit was purchased from CisbioBioassays. Synergy Neo 2 of Biotek was used to read the plate.
(§8) The tested compound was subjected to 4-fold serial dilution to reach a final concentration of 1 μM to 0.004 nM (10 concentrates), duplicates for each concentration; and 1% DMSO was present in the detection reaction.
0.026 ng/μL TRKA (G667C) kinase, 1 μM TK Substrate-biotin polypeptide substrate, 5.5 μm ATP, 1× enzymatic buffer, 5 mM MgCl2, and 1 mM DTT. The detection plate was White Proxiplate 384-Plus plate (PerkinElmer), and incubated at room temperature for 30 min, the assay volume was 10 μL.
as §4
(§9) The value of 665/620 Ratio minus the value of negative control wells without enzyme, then the obtained value was converted according to the following formula into inhibition rate (%)=(1−Ratiotest/Ratiomax)×100%. Ratiomax was a positive control without tested compound, and Ratiotest was the value of each concentration of different compounds. IC50 (nM) data was obtained by 4 parameter curve fitting (see Table 1).

[2] = target: T4, recombinant human TRKA (G595R) (Homo sapiens, UniProt P04629, G595R); assay: In vitro activity test on mutant TRKA (G595R) (HTRF KinEASE TK); conditions: 4.5 μM ATP, 30 min
T4 construct: purchased SignalChem
T4 sequence (P04629 33-796 G595R): as the sequence (P04629 33-796) above, with G563R counted along it
Description: as §6, §7, §8
0.12 ng/μL TRKA (G595R) kinase, 1 μM TK Substrate-biotin polypeptide substrate, 4.5 μM ATP, 1× enzymatic buffer, 5 mM MgCl2, and 1 mm DTT. The detection plate was White Proxiplate384-Plus plate (PerkinElmer), and incubated at room temperature for 30 min, and the assay volume was 10 μL.
as §4, §9

Recombinant human TRKB = target: T5, Recombinant human TRKB (Homo sapiens, UniProt Q16620); assay: In vitro activity test on TRKB kinase (HTRF KinEASE TK); conditions: 4.77 μM ATP, 50 min
T5 construct: purchased Carna Biosciences
T5 sequence (Q16620 32-822): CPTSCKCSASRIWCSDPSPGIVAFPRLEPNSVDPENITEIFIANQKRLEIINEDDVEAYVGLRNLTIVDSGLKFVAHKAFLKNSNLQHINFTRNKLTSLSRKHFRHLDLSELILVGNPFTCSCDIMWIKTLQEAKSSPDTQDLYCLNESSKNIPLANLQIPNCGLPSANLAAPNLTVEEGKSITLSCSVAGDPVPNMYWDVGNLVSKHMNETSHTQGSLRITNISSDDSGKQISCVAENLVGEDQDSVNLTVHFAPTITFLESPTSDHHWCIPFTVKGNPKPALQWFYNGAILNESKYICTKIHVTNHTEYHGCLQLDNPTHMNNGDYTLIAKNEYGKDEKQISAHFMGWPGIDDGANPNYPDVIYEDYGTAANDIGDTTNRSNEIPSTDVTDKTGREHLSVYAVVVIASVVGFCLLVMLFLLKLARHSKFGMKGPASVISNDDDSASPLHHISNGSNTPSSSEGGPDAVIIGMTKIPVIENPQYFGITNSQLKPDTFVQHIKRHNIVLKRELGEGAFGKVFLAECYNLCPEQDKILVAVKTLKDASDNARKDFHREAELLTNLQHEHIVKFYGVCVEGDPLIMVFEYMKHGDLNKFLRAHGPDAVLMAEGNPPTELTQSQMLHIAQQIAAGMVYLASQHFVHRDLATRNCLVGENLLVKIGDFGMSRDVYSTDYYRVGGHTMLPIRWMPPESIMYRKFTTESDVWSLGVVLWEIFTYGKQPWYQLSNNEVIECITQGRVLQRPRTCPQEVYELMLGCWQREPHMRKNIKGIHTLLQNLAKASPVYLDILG
Description: as §1, §2, §3
0.037 ng/μL TRKB protein kinase, 1 μM TK Substrate-biotin polypeptide substrate, 4.77 μM ATP, 1× enzymatic buffer, 5 mM MgCl2, and 1 mM DTT. The detection plate was White Proxiplate 384-Plus plate (PerkinElmer), and incubated at room temperature for 50 min, and the assay volume was 10 μL.
as §4, §5

T1 sequence (Q16288 32-839): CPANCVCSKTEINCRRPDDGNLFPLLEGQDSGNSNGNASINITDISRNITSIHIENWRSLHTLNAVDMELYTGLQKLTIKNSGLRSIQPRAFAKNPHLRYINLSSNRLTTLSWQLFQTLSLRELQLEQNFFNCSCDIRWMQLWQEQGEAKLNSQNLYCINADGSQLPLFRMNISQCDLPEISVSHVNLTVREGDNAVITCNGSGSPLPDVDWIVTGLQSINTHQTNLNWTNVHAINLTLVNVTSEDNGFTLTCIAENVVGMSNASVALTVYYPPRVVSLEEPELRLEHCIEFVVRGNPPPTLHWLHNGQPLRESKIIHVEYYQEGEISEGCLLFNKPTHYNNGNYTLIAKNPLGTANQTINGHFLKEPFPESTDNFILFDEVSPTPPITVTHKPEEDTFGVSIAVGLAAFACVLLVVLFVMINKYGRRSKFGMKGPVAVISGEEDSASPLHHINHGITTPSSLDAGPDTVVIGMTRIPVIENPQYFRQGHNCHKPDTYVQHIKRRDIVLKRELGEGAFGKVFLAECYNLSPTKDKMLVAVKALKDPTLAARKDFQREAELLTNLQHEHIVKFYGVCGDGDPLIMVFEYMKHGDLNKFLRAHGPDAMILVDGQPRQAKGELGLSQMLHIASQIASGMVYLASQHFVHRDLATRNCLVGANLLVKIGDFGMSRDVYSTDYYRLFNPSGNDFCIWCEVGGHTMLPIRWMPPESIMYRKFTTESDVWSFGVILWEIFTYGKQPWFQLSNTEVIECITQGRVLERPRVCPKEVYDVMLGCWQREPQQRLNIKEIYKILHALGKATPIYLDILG

NC(=O)c1cnc2ccc(N3C[C@@H](F)C[C@@H]3c3cc(F)ccc3F)nc2c1-c1cnn(C2CCNCC2)c1 [Example 37, 6-((2R,4S)-2-(2,5-difluorophenyl)-4-fluoropyrrolidin-1-yl)-4-(1-(piperidin-4-yl)-1H-pyrazol-4-yl)-1,5-naphthyridin-3-carboxamide]
IC50 (Recombinant human TRKC): < 10 nM | IC50 (Recombinant human TRKA): < 1 nM | IC50 [1]: < 50 nM | IC50 [2]: < 10 nM | IC50 (Recombinant human TRKB): < 10 nM

O[C@H]1CCN(c2ccc(-c3c(Cl)cnc4ccc(N5C[C@@H](F)C[C@@H]5c5cc(F)ccc5F)nc34)cn2)C1 [Example 66, (S)-1-(5-(3-chloro-6-((2R,4S)-2-(2,5-difluorophenyl)-4-fluoropyrrolidin-1-yl)-1,5-naphthyridin-4-yl)pyridin-2-yl)pyrrolidin-3-ol]
IC50 (Recombinant human TRKC): < 10 nM | IC50 (Recombinant human TRKA): < 1 nM | IC50 [1]: < 10 nM | IC50 [2]: < 10 nM | IC50 (Recombinant human TRKB): < 10 nM

O[C@H]1CCN(c2ccc(-c3ncnc4ccc(N5C[C@@H](F)C[C@@H]5c5cc(F)ccc5F)nc34)cn2)C1 [Example 75, (S)-1-(5-(6-((2R,4S)-2-(2,5-difluorophenyl)-4-fluoropyrrolidin-1-yl)pyrido[3,2-d]pyrimidin-4-yl)pyridin-2-yl)pyrrolidin-3-ol]
IC50 (Recombinant human TRKC): < 1 nM | IC50 (Recombinant human TRKA): < 1 nM | IC50 [1]: < 10 nM | IC50 [2]: < 1 nM | IC50 (Recombinant human TRKB): < 1 nM

CC1(O)CC(n2cc(-c3c(Cl)cnc4ccc(N5C[C@@H](F)C[C@@H]5c5cc(F)ccc5F)nc34)cn2)C1 (stereo partly drawn) [Example 39, 3-(4-(3-chloro-6-((2R,4S)-2-(2,5-difluorophenyl)-4-fluoropyrrolidin-1-yl)-1,5-naphthyridin-4-yl)-1H-pyrazol-1-yl)-1-methylcyclobutan-1-ol]
IC50 (Recombinant human TRKC): < 1 nM | IC50 (Recombinant human TRKA): < 1 nM | IC50 [1]: < 10 nM | IC50 [2]: < 10 nM | IC50 (Recombinant human TRKB): < 1 nM

Fc1ccc(F)c([C@H]2C[C@H](F)CN2c2ccc3ncc(F)c(-c4cnn(C5CNC5)c4)c3n2)c1 [Example 29, 8-(1-(azetidin-3-yl)-1H-pyrazol-4-yl)-2-((2R,4S)-2-(2,5-difluorophenyl)-4-fluoropyrrolidin-1-yl)-7-fluoro-1,5-naphthyridine]
IC50 (Recombinant human TRKC): < 1 nM | IC50 (Recombinant human TRKA): < 1 nM | IC50 [1]: < 1 nM | IC50 [2]: < 1 nM | IC50 (Recombinant human TRKB): < 1 nM

Fc1ccc(F)c([C@H]2C[C@H](F)CN2c2ccc3ncc(Cl)c(-c4cnn(C5CNC5)c4)c3n2)c1 [Example 22, 8-(1-(azetidine-3-yl)-1H-pyrazol-4-yl)-7-chloro-2-((2R,4S)-2-(2,5-difluorophenyl)-4-fluoropyrrolidin-1-yl)-1,5-naphthyridine]
IC50 (Recombinant human TRKC): < 1 nM | IC50 (Recombinant human TRKA): < 1 nM | IC50 [1]: < 1 nM | IC50 [2]: < 1 nM | IC50 (Recombinant human TRKB): < 1 nM

Fc1ccc(F)c([C@H]2CCCN2c2ccc3ncc(F)c(-c4cnn(C5CCNCC5)c4)c3n2)c1 [Example 21]
IC50 (Recombinant human TRKC): < 1 nM | IC50 (Recombinant human TRKA): < 1 nM | IC50 [1]: < 10 nM | IC50 [2]: < 1 nM | IC50 (Recombinant human TRKB): < 1 nM

O[C@H]1CCN(c2cnn(-c3ncnc4ccc(N5C[C@@H](F)C[C@@H]5c5cc(F)ccc5F)nc34)c2)C1 [Example 70, (S)-1-(1-(6-((2R,4S)-2-(2,5-difluorophenyl)-4-fluoropyrrolidin-1-yl)pyrido[3,2-d]pyrimidin-4-yl)-1H-pyrazol-4-yl)pyrrolidin-3-ol]
IC50 (Recombinant human TRKC): < 1 nM | IC50 (Recombinant human TRKA): < 1 nM | IC50 [1]: < 10 nM | IC50 [2]: < 10 nM | IC50 (Recombinant human TRKB): < 1 nM

CC(C)N1CCC(n2cc(-c3ccnc4ccc(N5C[C@@H](F)C[C@@H]5c5cc(F)ccc5F)nc34)cn2)CC1 [Example 14]
IC50 (Recombinant human TRKC): < 1 nM | IC50 (Recombinant human TRKA): < 1 nM | IC50 [1]: < 50 nM | IC50 [2]: < 1 nM | IC50 (Recombinant human TRKB): < 10 nM

Fc1ccc(F)c([C@H]2C[C@H](F)CN2c2ccc3ncnc(-c4cn(C5CCNCC5)nn4)c3n2)c1 [Example 86, 6-((2R,4S)-2-(2,5-Difluorophenyl)-4-fluoropyrrolidin-1-yl)-4-(1-(piperidin-4-yl)-1H-1,2,3-triazol-4-yl)pyrido[3,2-d]pyrimidine]
IC50 (Recombinant human TRKC): < 1 nM | IC50 (Recombinant human TRKA): < 1 nM | IC50 [2]: < 10 nM | IC50 (Recombinant human TRKB): < 10 nM

Fc1ccc(F)c([C@H]2C[C@H](F)CN2c2ccc3ncnc(-c4cnc(C5CCNCC5)nc4)c3n2)c1 [Example 91, 6-((2R,4S)-2-(2,5-Difluorophenyl)-4-fluoropyrrolidin-1-yl)-4-(2-(piperidin-4-yl)pyrimidin-5-yl)pyrido[3,2-d]pyrimidine]
IC50 (Recombinant human TRKC): < 1 nM | IC50 (Recombinant human TRKA): < 1 nM | IC50 [2]: < 10 nM | IC50 (Recombinant human TRKB): < 1 nM

O[C@H]1CCN(c2nc(-c3ncnc4ccc(N5C[C@@H](F)C[C@@H]5c5cc(F)ccc5F)nc34)no2)C1 [Example 68, (S)-1-(3-(6-((2R,4S)-2-(2,5-difluorophenyl)-4-fluoropyrrolidin-1-yl)pyrido[3,2-d]pyrimidin-4-yl)-1,2,4-oxadiazol-5-yl)pyrrolidin-3-ol]
IC50 (Recombinant human TRKC): < 10 nM | IC50 (Recombinant human TRKA): < 1 nM | IC50 [2]: < 10 nM | IC50 (Recombinant human TRKB): < 10 nM

O=C(O)[C@@H]1CCN(c2ncc(-c3ncnc4ccc(N5C[C@@H](F)C[C@@H]5c5cc(F)ccc5F)nc34)cn2)C1 [Example 88, (R)-1-(5-(6-((2R,4S)-2-(2,5-difluorophenyl)-4-fluoropyrrolidin-1-yl)pyrido[3,2-d]primidin-4-yl)pyrimidin-2-yl)pyrrolidin-3-carboxylic acid]
IC50 (Recombinant human TRKC): < 1 nM | IC50 (Recombinant human TRKA): < 1 nM | IC50 [2]: < 1 nM | IC50 (Recombinant human TRKB): < 1 nM

O=C1N(c2ccnc3ccc(N4C[C@@H](F)C[C@@H]4c4cc(F)ccc4F)nc23)CC12CCNCC2 [Example 94, 2-(6-((2R,4S)-2-(2,5-difluorophenyl)-4-fluoropyrrolidin-1-yl)-1,5-naphthyridin-4-yl)-2,7-diazaspiro[3.5] nonane-1-one]
IC50 (Recombinant human TRKC): < 1 nM | IC50 (Recombinant human TRKA): < 1 nM | IC50 [2]: < 1 nM | IC50 (Recombinant human TRKB): < 1 nM

Fc1ccc(F)c([C@H]2C[C@H](F)CN2c2ncc3ncnc(-c4cnn(C5CCNCC5)c4)c3n2)c1 [Example 76, 2-((2R,4S)-2-(2,5-difluorophenyl)-4-fluoropyrrolidin-1-yl)-8-(1-(piperidin-4-yl)-1H-pyrazol-4-yl)pyrimido[5,4-d]pyrimidine]
IC50 (Recombinant human TRKC): < 10 nM | IC50 (Recombinant human TRKA): < 1 nM | IC50 [2]: < 10 nM | IC50 (Recombinant human TRKB): < 10 nM

OC1CCC(Nc2ccnc3ccc(N4CCC[C@@H]4c4cc(F)ccc4F)nc23)C1 (stereo partly drawn) [Example 1, 3-((6-((R)-2-(2,5-difluorophenyl)pyrrolidin-1-yl)-1,5-naphthyridin-4-yl)amino)cyclopentane-1-ol]
IC50 (Recombinant human TRKC): < 10 nM | IC50 (Recombinant human TRKA): < 10 nM | IC50 [2]: < 50 nM | IC50 (Recombinant human TRKB): < 50 nM

O=c1n(-c2ccnc3ccc(N4C[C@@H](F)C[C@@H]4c4cc(F)ccc4F)nc23)ccn1C1CCNCC1 [Example 95, 1-(6-((2R,4S)-2-(2,5-difluorophenyl)-4-fluoropyrrolidin-1-yl)-1,5-naphthyridin-4-yl)-3-(piperidin-4-yl)-1,3-dihydro-2H-imidazol-2-one]
IC50 (Recombinant human TRKC): < 1 nM | IC50 (Recombinant human TRKA): < 1 nM | IC50 [2]: < 1 nM | IC50 (Recombinant human TRKB): < 10 nM

Fc1ccc(F)c([C@H]2C[C@H](F)CN2c2ccc3ncc(F)c(-c4cn(C5CCNCC5)nn4)c3n2)c1 [Example 83, 2-((2R,4S)-2-(2,5-difluorophenyl)-4-fluoropyrrolidin-1-yl)-7-fluoro-8-(1-(piperidin-4-yl)-1H-1,2,3-triazol-4-yl)-1,5-naphthyridine]
IC50 (Recombinant human TRKC): < 10 nM | IC50 (Recombinant human TRKA): < 1 nM | IC50 [2]: < 10 nM | IC50 (Recombinant human TRKB): < 10 nM
